This is an account of results in article PMC11912471 (Journal of Medicinal Chemistry, 2025).

The inhibition is the drop in the measured response relative to a control, in per cent. Broadly, the IC50 is the concentration that inhibits the measured activity by half.

Where a name gives a salt, the structure may show the parent alone. Read-outs that look alike come from different tables or passages of the source.

Data set [1] has as its target T1, purified human ODC enzyme (Homo sapiens, UniProt P11926).
T1 construct: His6 (C); made in house; host or cells: E. coli BL21(DE3)
T1 sequence (P11926 1-461): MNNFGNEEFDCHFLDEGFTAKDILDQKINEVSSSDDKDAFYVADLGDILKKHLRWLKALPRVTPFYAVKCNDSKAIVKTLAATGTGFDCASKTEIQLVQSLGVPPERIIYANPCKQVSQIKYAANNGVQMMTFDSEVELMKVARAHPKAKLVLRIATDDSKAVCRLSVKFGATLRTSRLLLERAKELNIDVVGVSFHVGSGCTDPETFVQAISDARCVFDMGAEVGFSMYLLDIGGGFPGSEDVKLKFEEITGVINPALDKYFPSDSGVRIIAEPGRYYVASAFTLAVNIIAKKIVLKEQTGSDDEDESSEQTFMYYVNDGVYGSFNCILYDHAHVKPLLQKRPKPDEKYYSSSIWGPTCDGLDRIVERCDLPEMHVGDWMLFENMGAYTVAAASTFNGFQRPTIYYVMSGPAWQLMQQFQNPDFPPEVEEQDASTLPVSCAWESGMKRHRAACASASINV
The experiment in a line: In vitro ODC enzyme activity assay. Format: biochemical. As to conditions: for IC50: read-out: ODC biochemical inhibition IC50. The protocol:
(§1) Our strategy to identify novel ODC inhibitors was to first screen new analogs for ODC inhibition at 50 μM using our in vitro enzyme activity assay and purified human ODC (Table 1). Those showing significant inhibition were then titrated to provide an ODC IC50 followed by cell-based screening against both cancer (Kelly neuroblastoma) and noncancerous (neonatal fibroblasts) cell lines. For the cancer cell line, higher cytotoxicity was desired and for the noncancerous cell line counter screen, lower cytotoxicity was desired.
In vitro ODC activity was measured using 100 ng of purified human ODC enzyme, as we previously described.[53],[99] ODC was incubated with increasing concentrations of inhibitors for 30 min at room temperature in a buffer containing 25 mM Tris and 0.1 mM EDTA. […] In the cell-based ODC activity assay, Kelly neuroblastoma cells that were treated with 500 μM inhibitors were harvested in a buffer containing 25 mM Tris HCl, 0.1 mM EDTA, and 2.5 mM DTT. […] For both the in vitro and cell-based assay, the microcentrifuge tubes were then placed into scintillation vials containing a piece of filter paper saturated with 200 μL of 0.1 M NaOH to capture the release of radiolabeled carbon dioxide. The samples were incubated in a 37 °C incubator while shaking for 30 min (in vitro) or 2 h (cell-based). The enzymatic reaction was stopped by adding 250 μL of 5 M sulfuric acid to each sample and incubating at 37 °C while shaking for 30 min. The microcentrifuge tubes were removed from the scintillation vials, and 5 mL of scintillation fluid was added. Disintegrations per minute (DPM) of each sample was measured using a TriCarb liquid scintillation counter (PerkinElmer). The specific ODC activity is expressed as nmol CO2/min/mg protein (in vitro) or pmol CO2/min/mg protein (cell-based). The individual ODC inhibitor IC50 values were determined using Graphpad Prism 8.

In data set [2] the test system is Kelly neuroblastoma cells. The data set can be described thus: Sulforhodamine B (SRB) cytotoxicity assay, Kelly neuroblastoma cells. Format: cell-based. As to conditions: for Cell cytotoxicity (72 hr @ 500 μM) Kelly Neuroblastoma: percent cytotoxicity; for cytotoxicity at 500 µM: Kelly, 72 hrs @500 µM, supplement csv, read-out: Kelly Neuroblasoma Cells (72 hrs @500 µM) %cytotoxicity. The procedure: as §1
(§2) Normal primary human neonatal fibroblast cells (ATCC) were maintained in DMEM medium (Gibco) supplemented with 10% heat-inactivated fetal bovine serum (Hyclone), penicillin (100 IU/mL), and streptomycin (100 μg/mL), nonessential amino acids (0.1 mM) and sodium pyruvate (1 mM). Kelly neuroblastoma cells (Sigma-Aldrich) were maintained in RPMI medium (Corning) supplemented with 10% heat-inactivated fetal bovine serum (Hyclone), penicillin (100 IU/mL), and streptomycin (100 μg/mL). Cell lines were routinely monitored for mycoplasma contamination using the MycoAlert PLUS Mycoplasma Detection Kit (Lonza).
(§3) The colorimetric sulforhodamine B (SRB) assay was used to measure cytotoxicity following treatment with ODC inhibitors. Briefly, Kelly neuroblastoma cells and normal primary human neonatal fibroblast cells were plated in transparent flat 96-well plates and allowed to attach overnight. Cells were treated with control or 500 μM ODC inhibitor for 72 h. Cells were then fixed with 10% TCA at 4 °C for 1 h, washed with deionized water, and dried at room temperature. Cells were stained with 100 μL of 0.4% SRB in 1% acetic acid for 20 min at room temperature, rinsed five times with 1% acetic acid and allowed to dry at room temperature. One hundred μL of 10 mM Tris–HCl pH 7.0 was added to each well, shaken for 10 min at room temperature and absorbance was read at 540 nm. Absorbance values were normalized relative to control readings and converted to percentage by multiplying by one hundred. The percent cytotoxicity was then determined by subtracting the relative percentage of the ODC inhibitor treated readings from the control which is 100%.
(In general: The SRB assay estimates cell density from bound dye.)

Data set [3] is described as follows: Sulforhodamine B (SRB) cytotoxicity assay, neonatal fibroblasts. Format: cell-based, human. As to conditions: human, normal primary neonatal fibroblast cells; 72 hrs @500 µM; supplement csv. The protocol:
as §1, §2, §3

The test system of data set [4] is normal primary human neonatal fibroblast cells. Described as above. Type of data set: cell-based. Particulars: 500 μM; for Cell cytotoxicity (72 hr @ 500 μM) Neonatal Fibroblasts: percent cytotoxicity. The protocol: as §1, §2, §3
The target in data set [5] is homogeneous mouse kidney ODC. Further details: method as in PMID 3861182. Particulars: competitive; read-out: Ki, competitive inhibitor of mouse kidney ODC; cited from earlier work.
Data set [6] concerns the target homogeneous liver adenosylmethionine decarboxylase. Further details: method as in PMID 3861182. Particulars: irreversible; read-out: Ki, irreversible inhibitor of liver adenosylmethionine decarboxylase; cited from earlier work.
Data set [7] deals with homogeneous bovine brain spermidine synthase. On the set-up: method as in PMID 3861182. Particulars: competitive; read-out: Ki, competitive inhibitor of bovine brain spermidine synthase; cited from earlier work.
Data set [8] concerns human ODC. Further details: method as in earlier work. As to conditions: 49−51; cited from earlier work.
For data set [9] the following is noted: cited from earlier work.
For data set [10] the following is noted: no reference printed for this property; cited from earlier work.
Setting [11] is: read-out: ODC biochemical inhibition % (50 μM).

As for `NCCCON` [APA, 3-(Aminooxy)propan-1-Amine Dihydrochloride], the inhibition at 50 µM in data set [1] (50 µM, supplement csv, read-out: ODC % inhibition (screened at 50 µM)) is 99%; in data set [1] (setting [11]), above 99%. Moreover, the IC50 in data set [1] was 40 nM. Besides, in [2] (72 h, 500 μM), the “activity against Kelly neuroblastoma cells (in words)” value was “greater anticancer activity”. The “Cell cytotoxicity (72 hr @ 500 μM) Kelly Neuroblastoma” value in data set [2] (500 μM) is given as 77±21%. For the same compound, the cytotoxicity at 500 µM in data set [2] was found to be 77%. Moreover, in data set [3], the cytotoxicity at 72 h, 500 µM came to 37%. Moreover, in data set [4] (72 h), the “cytotoxic activity against neonatal fibroblasts (in words)” value is given as “somewhat reduced overt cytotoxic activity”. In data set [4], the “Cell cytotoxicity (72 hr @ 500 μM) Neonatal Fibroblasts” value turned out to be 37±10%. Besides, the values for the Ki in data set [5], in data set [6] and in [7] were 3.2 nM, 50000 nM and 2300 nM, respectively. For the same compound, in data set [8], the “IC50 against human ODC (in words)” value is “low nM range”. The “potency against human ODC, times higher than that of DFMO” value in data set [8] was 10,000 times. Also, the “pKa of hydroxyl amine” value in data set [9] is recorded as around 5.9. Moreover, in data set [10], the “water solubility (in words)” value is “highly water-soluble”.

On to `Cl.Cl.NOCC1(F)CCNC1` (stereo not shown) [Compound 11, 3-[(aminooxy)methyl]-3-fluoropyrrolidine di-formic acid], for which the inhibition at 50 µM in data set [1] (setting [11]) is above 99%. For the same compound, the IC50 in data set [1] amounted to 50 nM. The “Cell cytotoxicity (72 hr @ 500 μM) Kelly Neuroblastoma” value in data set [2] (500 μM) was 46±9%. For the same compound, the cytotoxicity at 500 µM in data set [2] is 46%. The compound further showed a cytotoxicity at 72 h, 500 µM in data set [3] of 21%. Besides, the “Cell cytotoxicity (72 hr @ 500 μM) Neonatal Fibroblasts” value in [4] amounted to 21±17%.
